Results on two compounds are retold here after patent publication EP1126030A1, “THIOREDOXIN REDUCTASE II” (priority 1998, dated 2000).

The target of the assay is T1, flag-tag fused TxRIIα protein (Homo sapiens, UniProt Q9NNW7).
T1 construct: made in house
Nature of the assay: Inhibitor assay (DTNB assay of TxR activity). Type of assay: biochemical. As to conditions: diluted series of inhibitor; 1 µM flag-tag fused TxRIIα protein, 1 mM NADPH, 10 mM DTNB, pH 7.2; absorbance at 412 nm at 25°C for 5 min (Figure 5). As for the experimental part: DTNB assay is a method in which TNB caused by the TxR activity from DTNB is measured by the absorbance of a thiol at 412 nm based on the following reaction formula. The purified tag fused TxRIIα protein (1 to 50 µl) was added to the assay buffer 1 to mess up to 1.0 ml. The absorbance at 412 nm was measured at 25°C for 5 min (Figure 3). DTNB + NADPH + H^+ 2TNB + NADP^+
100 mM potassium phosphate pH 7.0, 10 mM EDTA, 0.25 mM NADPH, 0.2 mg/ml bovine serum albumin (BSA), 1% ethanol, 1 mM DTNB
To compare an enzyme activity of the TxRIIs by the present invention, obtained as a recombinant, and an activity of the natural TxR, an effect of an inhibitor was observed. As an inhibitor for the TxR activity, 1-chloro-2, 4-dinitrobenzene (CDNB) and 13-cis-retinoic acid was used. For confirming the TxR activity, the DTNB assay was used.
The diluted series of the inhibitors was prepared with 0.2 ml of HE buffer (100 mM HEPES buffer pH 7.2, 5 mM EDTA) . The tag-fused TxRIIαprotein was prepared at 3 µM and 0.2 ml thereof was added thereto, then 0.2 ml of HE buffer containing 3 mM NADPH and 30 mM DTNB was added thereto. The reaction system of this solution is composed of 100 mM HEPES buffer pH 7.2, 5 mM EDTA, 1 µM flag-tag fused TxRIIα protein, 1 mM NADPH, and 10 mM DTNB. The […] was measured by absorbance of a thiol at 412 nm at 25°C for 5min.

Structures are written as SMILES.

T1 sequence (Q9NNW7 37-524): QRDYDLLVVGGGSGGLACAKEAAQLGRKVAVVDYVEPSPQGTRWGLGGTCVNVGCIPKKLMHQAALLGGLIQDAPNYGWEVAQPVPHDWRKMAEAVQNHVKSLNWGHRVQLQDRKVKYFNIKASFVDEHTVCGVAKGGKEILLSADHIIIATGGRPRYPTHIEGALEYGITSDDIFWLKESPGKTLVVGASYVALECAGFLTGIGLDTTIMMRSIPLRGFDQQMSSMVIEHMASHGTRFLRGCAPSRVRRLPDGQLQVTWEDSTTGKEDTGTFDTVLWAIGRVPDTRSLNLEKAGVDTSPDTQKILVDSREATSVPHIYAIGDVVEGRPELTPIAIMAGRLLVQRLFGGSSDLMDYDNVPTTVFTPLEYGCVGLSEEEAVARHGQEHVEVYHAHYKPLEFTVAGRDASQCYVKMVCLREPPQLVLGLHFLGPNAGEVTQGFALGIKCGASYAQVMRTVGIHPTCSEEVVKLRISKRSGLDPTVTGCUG

For the compound `CC1=C(/C=C/C(C)=C/C=C/C(C)=C\C(=O)O)C(C)(C)CCC1` [13-cis retinoic acid, 13-cis-retinoic acid], the “inhibition of the TxR activity of the purified flag-tag fused TxRIIα protein” value is listed as “effectively inhibited”.
Under `O=[N+]([O-])c1ccc(Cl)c([N+](=O)[O-])c1` [CDNB, 1-chloro-2,4-dinitrobenzene] stands “effectively inhibited”.
